{
  "source": "patent US5776925A",
  "about": "“Methods for cancer chemosensitization” (Pharmacyclics, Inc., priority 1996, dated 1998)",
  "key": {"[1]": {"system": "MES-SA cells", "assay_type": "cell-based, human"}, "[2]": {"system": "MES-SA/Dx5 cells", "assay": "chemosensitization effect in doxorubicin-selected mdr1 variant", "assay_type": "cell-based, human"}, "[3]": {"details": "in vivo; cited from earlier work"}, "[4]": {"system": "MES-SA cells"}, "[5]": {"system": "EMT6 tumors", "assay": "in vivo chemosensitization of cyclophosphamide, subcutaneous EMT6 tumors in Balb/c mice", "design": "species or system murine (Balb/c mice)", "details": "cyclophosphamide 40 mg/kg followed by GdT2BET 40 μmol/kg 5 min, or 5 min and 5 hr later; once a week for three weeks", "experimental": "In vivo studies were carried out using Balb/c mice with EMT6 tumors implanted subcutaneously as described in Example 2. 4-Hydroxy cyclophosphamide was dissolved at a concentration of 5 mg/mL in 0.9% NaCl. GdT2BET was dissolved at a concentration of 2 mM in 5% mannitol. EMT6 tumors were implanted subcutaneously in the right flanks of Balb/c mice; 9 mice were in each group. Group #1 received cyclophosphamide (CY) at 40 mg/kg; group #2 received cyclophosphamide (CY) at 40 mg/kg followed by GdT2BET at 40 μmol/kg 5 min later; and group #3 received cyclophosphamide (CY) at 40 mg/kg followed by GdT2BET at 40 μmol/kg 5 min and 5 hr later. This protocol was repeated once a week for three weeks."}, "[6]": {"system": "EMT6 tumors"}, "[7]": {"system": "MDR gene in bone marrow cells", "details": "MDR1-transgenic mouse, simultaneous administration (Mickisch, 1991); cited from earlier work"}},
  "data": [
    {"compound": "bleomycin", "values": [
      {"measurement": "effectiveness in the presence of texaphyrin", "setting": "[1]", "value": "effective"},
      {"measurement": "effectiveness in the presence of texaphyrin", "setting": "[2]", "value": "effective"}
    ]},
    {"compound": "CC/C(=C(\\c1ccccc1)c1ccc(OCCN(C)C)cc1)c1ccccc1", "note": "[tamoxifen]", "values": [
      {"measurement": "dose-limiting toxicities as chemosensitizer", "setting": "[3]", "value": "attributed to the inherent toxicity of the chemosensitizer and not due to enhanced chemotherapy toxicity"}
    ]},
    {"compound": "COc1cc([C@@H]2c3cc4c(cc3[C@@H](O[C@@H]3O[C@@H]5CO[C@@H](C)O[C@H]5[C@H](O)[C@H]3O)[C@H]3COC(=O)[C@H]23)OCO4)cc(OC)c1O", "note": "[etoposide]", "values": [
      {"measurement": "effectiveness in the presence of texaphyrin", "setting": "[1]", "value": "effective"},
      {"measurement": "effectiveness in the presence of texaphyrin", "setting": "[2]", "value": "effective"},
      {"measurement": "IC50 difference relative to control / cytotoxicity in the presence of texaphyrin (FIG. 2)", "setting": "[4]", "value": "enhanced cytotoxicity"}
    ]},
    {"compound": "CC(=O)[O-].CC(=O)[O-].CCc1c(CC)c2cc3nc(cnc4cc(OCCOCCOCCOC)c(OCCOCCOCCOC)cc4ncc4nc(cc1[n-]2)C(CCCO)=C4C)C(C)=C3CCCO.O.[Gd+3]", "note": "[GdT2BET]", "values": [
      {"measurement": "chemosensitization with cyclophosphamide in vivo", "setting": "[5]", "value": "little chemosensitization occurred"},
      {"measurement": "mechanism of action of chemosensitization", "setting": "[2]; MES-SA/Dx5 compared with MES-SA", "value": "P-glycoprotein-independent"},
      {"measurement": "enhancement of cytotoxicity of bleomycin", "setting": "[4]", "value": "seen at all concentrations of bleomycin tested and at all three concentrations of texaphyrin tested"},
      {"measurement": "percent survival of the cells", "setting": "[4]; with bleomycin, 50 μM, 100 μM, and 150 μM GdT2BET, 48 hr", "value": "substantially less in the presence of texaphyrin"},
      {"measurement": "cures (no evidence of disease at end of study)", "setting": "[6]; ADR+2GdT2BET group (GdT2BET 5 min and 5 hr post ADR), first study", "value": "Two"},
      {"measurement": "cures, further study", "setting": "[6]; ADR+2GdT2BET group, further study", "value": "two"},
      {"measurement": "adriamycin cytotoxicity (tumor)", "setting": "[6]; adriamycin 7.5 mg/kg iv followed by GdT2BET 40 μmol/kg iv, once a week for three weeks", "value": "clear enhancement of adriamycin cytotoxicity"},
      {"measurement": "p, ADR+2GdT2BET versus ADR only", "setting": "[6]; after day 9, FIG. 1, n=14", "value": "< 0.05"},
      {"measurement": "cytotoxicity in further study", "setting": "[6]; further study: ADR+2GdT2BET and three-step texaphyrin/ADR/texaphyrin", "value": "enhanced cytotoxicity"}
    ]},
    {"compound": "COc1ccc(CCN(C)CCCC(C#N)(c2ccc(OC)c(OC)c2)C(C)C)cc1OC", "note": "(centres unmarked) [verapamil]", "values": [
      {"measurement": "reversal of drug resistance", "setting": "[7]", "value": "circumvented in a dose-dependent manner"}
    ]},
    {"compound": "COc1cccc2c1C(=O)c1c(O)c3c(c(O)c1C2=O)C[C@@](O)(C(=O)CO)C[C@@H]3O[C@H]1C[C@H](N)[C@H](O)[C@H](C)O1", "note": "[doxorubicin]", "values": [
      {"measurement": "effectiveness in the presence of texaphyrin", "setting": "[1]", "value": "effective"},
      {"measurement": "effectiveness in the presence of texaphyrin", "setting": "[2]", "value": "effective"}
    ]},
    {"compound": "CC(=O)O[C@H]1C(=O)[C@@]2(C)[C@H]([C@H](OC(=O)c3ccccc3)[C@]3(O)C[C@H](OC(=O)[C@H](O)[C@@H](NC(=O)c4ccccc4)c4ccccc4)C(C)=C1C3(C)C)[C@]1(OC(C)=O)CO[C@@H]1C[C@@H]2O", "note": "[paclitaxel]", "values": [
      {"measurement": "IC50 difference relative to control / cytotoxicity in the presence of texaphyrin (FIG. 2)", "setting": "[4]", "value": "enhanced cytotoxicity"}
    ]},
    {"compound": "N.N.[Cl][Pt][Cl]", "note": "[cisplatin]", "values": [
      {"measurement": "effectiveness in the presence of texaphyrin", "setting": "[1]", "value": "effective"},
      {"measurement": "effectiveness in the presence of texaphyrin", "setting": "[2]", "value": "effective"}
    ]},
    {"compound": "CN1CCN(CCCN2c3ccccc3Sc3ccc(C(F)(F)F)cc32)CC1", "note": "[trifluoperazine]", "values": [
      {"measurement": "dose-limiting toxicities as chemosensitizer", "setting": "[3]", "value": "attributed to the inherent toxicity of the chemosensitizer and not due to enhanced chemotherapy toxicity"}
    ]},
    {"compound": "C=C[C@H]1C[N@@]2CC[C@H]1C[C@H]2[C@H](O)c1ccnc2ccc(OC)cc12", "note": "[quinine]", "values": [
      {"measurement": "reversal of drug resistance", "setting": "[7]", "value": "circumvented in a dose-dependent manner"}
    ]}
  ]
}
